From patent US8859605B2, “Cysteine protease inhibitors” (Medivir UK Ltd, priority 2009, dated 2014)

Legend:
human cathepsin S = biological target: T1, human cathepsin S (Homo sapiens, UniProt P25774); test: Cathepsin S Ki determination (boc-Val-Leu-Lys-AMC fluorescent substrate); format: biochemical; conditions: baculovirus-expressed human cathepsin S, pH 6.5; read-out: Ki Cat. S
T1 construct: made in house; host or cells: baculovirus expression system
Method: Cathepsin S Ki Determination
The assay uses baculovirus-expressed human cathepsin S and the boc-Val-Leu-Lys-AMC fluorescent substrate available from Bachem in a 384 well plate format, in which 7 test compounds can be tested in parallel with a positive control comprising a known cathepsin S inhibitor comparator.
280 μL/well of 12.5% DMSO are added to rows B-H of two columns of a 96 deep well polypropylene plate. 70 μL/well of substrate is added to row A. 2×250 μL/well of assay buffer (100 mM Na phosphate, 100 mM NaCl, pH 6.5) is added to row A, mixed, and double diluted down the plate to row H.
100 μL/well of assay buffer is added to columns 2-5 and 7-12 of 4 rows of a 96 well V bottom polypropylene plate. 200 μL/well of assay buffer is added to columns 1 and 6.
2 μl of each 10 mM test compound is added to a separate well on row A, columns 1-10. Add 90 μl assay buffer containing 1 mM DTT and 2 nM cathepsin S to each well of rows B-H and 180 μl to row A. Mix row A using a multichannel pipette and double dilute to row G. Mix row H and read in the fluorescent spectrophotometer.
The second test compound is added to column 6 of the top row, the third to column 1 of the second row etc. Add 1 μL of comparator to column 6 of the bottom row. Mix column 1 and double dilute to column 5. Mix column 6 and double dilute to column 10. Using an 8-channel multistepping pipette set to 5×10 μL, distribute 10 μL/well of substrate to the 384 well assay plate. Distribute the first column of the substrate dilution plate to all columns of the assay plate starting at row A. The tip spacing of the multichannel pipette will correctly skip alternate rows. Distribute the second column to all columns starting at row B. Using a 12-channel multistepping pipette set to 4×10 μL, distribute 10 μL/well of inhibitor to the 384 well assay plate. Distribute the first row of the inhibitor dilution plate to alternate rows of the assay plate starting at A1. The tip spacing of the multichannel pipette will correctly skip alternate columns. Similarly, distribute the second, third and fourth rows to alternate rows and columns starting at A2, B1 and B2 respectively.
Mix 20 mL assay buffer and 20 μL 1M DTT. Add sufficient cathepsin S to give 2 nM final concentration.
Using the a distributor such as a Multidrop 384, add 30 μL/well to all wells of the assay plate and read in fluorescent spectrophotometer such as an Ascent.
Fluorescent readings, (excitation and emission wavelengths 390 nm and 460 nm respectively, set using bandpass filters) reflecting the extent of enzyme cleavage of the fluorescent substrate, […] the inhibitor, are linear rate fitted for each well.
Fitted rates for all wells for each inhibitor are fitted to the competitive inhibition equation using SigmaPlot 2000 to determine V, Km and Ki values.
(§1) Potential inhibitors are screened using the above assay with variable concentrations of test compound. Reactions were initiated by addition of enzyme to buffered solutions of substrate and inhibitor. Ki values were calculated according to equation 1.
(§2) [formula] where v0 is the velocity of the reaction, V is the maximal velocity, S is the concentration of substrate with Michaelis constant of KM, and I is the concentration of inhibitor.

[1] = biological target: T2, human recombinant cathepsin K (Homo sapiens, UniProt P43235); test: Determination of cathepsin K proteolytic catalytic activity (H-D-Ala-Leu-Lys-AMC substrate); format: biochemical; conditions: read-out: Ki Cat. K
T2 construct: made in house; host or cells: not fixed: E coli, Pichia or Baculovirus systems are named as options
T2 sequence (P43235 115-329): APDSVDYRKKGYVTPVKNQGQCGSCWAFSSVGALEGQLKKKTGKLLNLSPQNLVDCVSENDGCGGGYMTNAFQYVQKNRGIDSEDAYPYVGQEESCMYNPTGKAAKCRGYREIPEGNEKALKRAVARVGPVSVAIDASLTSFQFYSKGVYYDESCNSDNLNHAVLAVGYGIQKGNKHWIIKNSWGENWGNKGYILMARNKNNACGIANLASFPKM
Method: Determination of Cathepsin K Proteolytic Catalytic Activity
Convenient assays for cathepsin K are carried out using human recombinant enzyme, such as that described in PDB. • ID BC016058 standard; mRNA; HUM; 1699 BP. • DE Homo sapiens cathepsin K (pycnodysostosis), mRNA (cDNA clone MGC:23107 • RX MEDLINE; RX PUBMED; 12477932. • DR RZPD; IRALp962G1234. • DR SWISS-PROT; P43235;
The recombinant cathepsin K can be expressed in a variety of commercially available expression systems including E coli, Pichia and Baculovirus systems. The purified enzyme is activated by removal of the prosequence by conventional methods.
Standard assay conditions for the determination of kinetic constants used a fluorogenic peptide substrate, typically H-D-Ala-Leu-Lys-AMC, and were determined in either 100 mM Mes/Tris, pH 7.0 containing 1 mM EDTA and 10 mM 2-mercaptoethanol or 100 mMNa phosphate, imM EDTA, 0.1% PEG4000 pH 6.5 or 100 mM Na acetate, pH 5.5 containing 5 mM EDTA and 20 mM cysteine, in each case optionally with […] as stabiliser. The enzyme concentration used was 5 nM. The stock substrate solution was prepared at 10 mM in DMSO. Screens were carried out at a fixed substrate concentration of 60 μM and detailed kinetic studies with doubling dilutions of substrate from 250 μM. The total DMSO concentration in the assay was kept below 3%. All assays were conducted at ambient temperature. Product fluorescence (excitation at 390 nm, emission at 460 nm) was monitored with a Labsystems Fluoroskan Ascent fluorescent plate reader. Product progress curves were generated over 15 minutes following generation of AMC product.
as §1, §2

human cathepsin L = human cathepsin L (Homo sapiens, UniProt P07711); test: Cathepsin L Ki (H-D-Val-Leu-Lys-AMC substrate); format: biochemical; conditions: pH 5.5, read-out: Ki Cat. L
Method: The procedure above with the following amendments is used for the determination of Ki for cathepsin L.
The enzyme is commercially available human cathepsin L (for example Calbiochem). The substrate is H-D-Val-Leu-Lys-AMC available from Bahcem. The assay buffer is 100 mM sodium acetate 1 mM EDTA, pH5.5) The DMSO stock (10 mM in 100% DMSO) is diluted to 10% in assay buffer. Enzyme is prepared at 5 nM concentration in assay buffer plus 1 mM dithiothreitol just before use. 2 μL of 10 mM inhibitor made up in 100% DMSO is dispensed into row A. 10 μL of 50 μM substrate (=1/200 dilution of 10 mM stock in DMSO, diluted in assay buffer).
as §1, §2

[2] = reference markers (passive transport, active transport, active efflux); cited from earlier work

Chain of human cathepsin L (P07711 114-333): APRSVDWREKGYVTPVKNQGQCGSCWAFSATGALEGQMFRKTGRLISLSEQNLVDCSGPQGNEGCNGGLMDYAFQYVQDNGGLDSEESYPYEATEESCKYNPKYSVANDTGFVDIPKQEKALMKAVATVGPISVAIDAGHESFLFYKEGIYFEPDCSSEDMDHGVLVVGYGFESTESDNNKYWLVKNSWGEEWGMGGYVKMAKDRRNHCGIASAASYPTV
T1 sequence (P25774 115-331): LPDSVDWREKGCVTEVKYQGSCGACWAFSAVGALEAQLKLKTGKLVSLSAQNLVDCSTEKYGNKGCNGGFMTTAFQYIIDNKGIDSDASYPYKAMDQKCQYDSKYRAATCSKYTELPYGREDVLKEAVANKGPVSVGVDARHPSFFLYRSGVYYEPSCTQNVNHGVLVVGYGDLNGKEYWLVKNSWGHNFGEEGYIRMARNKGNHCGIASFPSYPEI

Row | Ki (human cathepsin S) | Ki [1] | Ki (human cathepsin L) | Compound | absorption in man (%) [2]
1 | 20 nM | 1200 nM | 6500 nM | CC(=O)N[C@@H](CC(C)(C)C)C(=O)NC1(C(=O)C(=O)Nc2ccn(C)n2)CC(F)(F)C1 [Example A15] | 
2 | 3 nM | 1100 nM | 380 nM | Cn1ccc(NC(=O)C(=O)C2(NC(=O)[C@H](CC3(F)CCCC3)NC(=O)C(F)F)CC(F)(F)C2)n1 [Example A36] | 
3 | 10 nM | 12000 nM | 33000 nM | COC1CC(NC(=O)[C@H](CC2(C)CCCC2)NC(C)=O)(C(=O)C(=O)NC2CC2)C1 (stereo partly drawn) [Example A16] | 
4 |  |  |  | N[C@@H](Cc1ccccc1)C(=O)O [L-Phenylalanine] | 100%
5 | 3.8 nM | 340 nM | 870 nM | CC(=O)N[C@@H](CC1(C)CCC1)C(=O)NC1(C(=O)C(=O)Nc2ccn(C)n2)CC(F)(F)C1 [Example A13] | 
6 | 0.8 nM | 850 nM | 3900 nM | CCC(=O)N[C@@H](CC1(C)CCCC1)C(=O)N[C@]1(C(=O)C(=O)Nc2ccn(C)n2)C[C@@H](F)C1 [Example A1, N-[3-Fluoro-1-(1-methyl-1H-pyrazol-3-ylaminooxalyl)-cyclobutyl]-3-(1-methyl-cyclopentyl)-2-propionylamino-propionamide] | 
7 | 1 nM | 720 nM | 3300 nM | CC(C)C(=O)NC(CC1(F)CCCC1)C(=O)NC1(C(=O)C(=O)Nc2ccn(C)n2)CC(F)C1 (stereo not drawn) [Example A30] | 
8 | 1.2 nM | 510 nM | 860 nM | CCN(CC)C(=O)N[C@@H](CC1(C)CCCC1)C(=O)N[C@]1(C(=O)C(=O)Nc2ccn(C)n2)C[C@@H](F)C1 [Example U1, 2-(3,3-Diethyl-ureido)-N-[3-fluoro-1-(1-methyl-1H-pyrazol-3-ylaminooxalyl)-cyclobutyl]-3-(1-methyl-cyclopentyl)-propionamide] | 
9 | 5.6 nM | 7400 nM | 25000 nM | COC1CC(NC(=O)[C@H](CC2(C)CCCC2)NC(=O)CCl)(C(=O)C(=O)NC2CC2)C1 (stereo partly drawn) [Example A19] | 
10 | 1 nM | 1100 nM | 2300 nM | CC(C)C(=O)N[C@@H](CC1(C)CCCC1)C(=O)NC1(C(=O)C(=O)Nc2ccn(C)n2)CC(F)(F)C1 [Example A25] | 
11 | 0.81 nM | 580 nM | 5200 nM | CC(=O)N[C@@H](CC1(C)CCCC1)C(=O)NC1(C(=O)C(=O)Nc2ccn(C)n2)CCC1 [Example A6] | 
12 |  |  |  | CN(Cc1cnc2nc(N)nc(N)c2n1)c1ccc(C(=O)N[C@@H](CCC(=O)O)C(=O)O)cc1 [Methotrexate] | 20%
13 | 3 nM | 640 nM | 1800 nM | [2H]C([2H])([2H])C(C(=O)N[C@@H](CC1(F)CCCC1)C(=O)NC1(C(=O)C(=O)Nc2ccn(C)n2)CC(F)(F)C1)(C([2H])([2H])[2H])C([2H])([2H])[2H] [Example A37] | 
14 | 0.63 nM | 620 nM | 2100 nM | CCNC(=O)N[C@@H](CC1(F)CCCC1)C(=O)NC1(C(=O)C(=O)Nc2ccn(C)n2)CCC1 [Example U4] | 
15 | 1.8 nM | 340 nM | 1200 nM | COC1CC(NC(=O)[C@H](CC2(F)CCCC2)NC(=O)C(C)(C)C)(C(=O)C(=O)Nc2ccn(C)n2)C1 (stereo partly drawn) [Example A31] | 
16 | 1.3 nM | 1300 nM | 2200 nM | CC(C)NC(=O)N[C@@H](CC1(F)CCCC1)C(=O)N[C@]1(C(=O)C(=O)Nc2ccn(C)n2)C[C@@H](F)C1 [Example U2, 3-(1-Fluoro-cyclopentyl)-N-[3-fluoro-1-(1-methyl-1H-pyrazol-3-ylaminooxalyl)-cyclobutyl]-2-(3-isopropyl-ureido)-propionamide] | 
17 |  |  |  | OC[C@@H](O)[C@@H](O)[C@H](O)[C@H](O)CO [Mannitol] | 16%
